Each structure is given as a SMILES string.

This passage reports melting point results from patent US7045515B2, “β-lactam compounds process for reproducing the same and serum cholesterol-lowering agents containing the same” (Kotobuki Pharmaceutical Co., Ltd., priority 2001, dated 2006).

By melting point is commonly meant the temperature of the solid-liquid transition.

For the compound `CC(=O)OC[C@H]1O[C@@H](Cc2ccc([C@@H]3[C@@H](CCCc4ccc(F)cc4)C(=O)N3c3ccc(F)cc3)cc2)[C@H](OC(C)=O)[C@@H](OC(C)=O)[C@@H]1OC(C)=O` (relative stereo) [Compound 3, (3S,2R,4R,5R,6R)-2-[(4-{(4S*,3R*)-1-(4-Fluorophenyl)-3-[3-(4-fluorophenyl)propyl]-2-oxoazetidine-4-yl}phenyl)methyl]-4,5-diacetyloxy-6-(acetoxymethyl)perhydro-2H-pyran-3-ylacetate], the melting point lay within 56 to 58 °C.

Consider `O=C1[C@H](CCCc2ccc(F)cc2)[C@@H](c2ccc(C[C@@H]3O[C@H](CO)[C@@H](O)[C@H](O)[C@H]3O)cc2)N1c1ccc(Cl)cc1` (relative stereo) [Compound 4, (4S*,3R*)-4-(4-{[(2S,5S,3R,4R,6R)-3,4,5-Trihydroxy-6-(hydroxymethyl)perhydro-2H-pyran-2-yl]methyl}phenyl)-1-(4-chlorophenyl)-3-[3-(4-fluorophenyl)propyl]azetidine-2-one], for which the melting point lay within 76 to 78 °C.

As to `COc1ccc(N2C(=O)[C@H](CCCc3ccc(F)cc3)[C@H]2c2ccc(CC3O[C@H](CO)[C@@H](O)[C@H](O)[C@H]3O)cc2)cc1` (relative stereo) [Compound 5, (4S*,3R*)-4-(4-{[(5S,2R,3R,4R,6R)-3,4,5-Trihydroxy-6-(hydroxymethyl)perhydro-2H-pyran-2-yl]methyl}phenyl)-1-(4-methoxyphenyl)-3-[3-(4-fluorophenyl)propyl]azetidine-2-one], the melting point lay in the range of 73 to 75 °C.

The compound `COc1ccc(N2C(=O)[C@H](CCCc3ccc(F)cc3)[C@H]2c2ccc(C[C@@H]3O[C@H](COC(C)=O)[C@@H](OC(C)=O)[C@H](OC(C)=O)[C@H]3OC(C)=O)cc2)cc1` (relative stereo) [Compound 6, (3S,2R,4R,5R,6R)-2-[(4-{(4S*,3R*)-1-(4-Methoxyphenyl)-3-[3-(4-fluorophenyl)propyl]-2-oxoazetidine-4-yl}phenyl)methyl]-4,5-diacetyloxy-6-(acetoxymethyl)perhydro-2H-pyran-3-ylacetate] gave a melting point of 60 to 62 °C.

The compound `Cc1ccc(N2C(=O)[C@H](CCCc3ccc(F)cc3)[C@H]2c2ccc(CC3O[C@H](CO)[C@@H](O)[C@H](O)[C@H]3O)cc2)cc1` (relative stereo) [Compound 7, (4S*,3R*)-4-(4-{[(5S,2R,3R,4R,6R)-3,4,5-Trihydroxy-6-(hydroxymethyl)perhydro-2H-pyran-2-yl]methyl}phenyl)-1-(4-methylphenyl)-3-[3-(4-fluorophenyl)propyl]azetidine-2-one] yielded a melting point of 80 to 82 °C.

The compound `CC(=O)OC[C@H]1O[C@@H](Cc2ccc([C@@H]3[C@@H](CCCc4ccc(F)cc4)C(=O)N3c3ccc(C)cc3)cc2)[C@H](OC(C)=O)[C@@H](OC(C)=O)[C@@H]1OC(C)=O` (relative stereo) [Compound 8, (3S,2R,4R,5R,6R)-2-[(4-{(4S*,3R*)-1-(4-Methylphenyl)-3-[3-(4-fluorophenyl)propyl]-2-oxoazetidine-4-yl}phenyl)methyl]-4,5-diacetyloxy-6-(acetoxymethyl)perhydro-2H-pyran-3-ylacetate] displayed a melting point of 56 to 58 °C.

Compound `O=C1[C@H](CCCc2ccc(F)cc2)[C@@H](c2ccc(CC3O[C@H](CO)[C@@H](O)[C@H](O)[C@H]3O)cc2)N1c1ccccc1` (relative stereo) [Compound 9, (4S*,3R*)-4-(4-{[(5S,2R,3R,4R,6R)-3,4,5-Trihydroxy-6-(hydroxymethyl)perhydro-2H-pyran-2-yl]methyl}phenyl)-1-phenyl-3-[3-(4-fluorophenyl)propyl]azetidine-2-one] yielded a melting point of 84 to 86 °C.

Consider `CC(=O)OC[C@H]1O[C@@H](Cc2ccc([C@@H]3[C@@H](CCCc4ccc(F)cc4)C(=O)N3c3ccccc3)cc2)[C@H](OC(C)=O)[C@@H](OC(C)=O)[C@@H]1OC(C)=O` (relative stereo) [Compound 10, (3S,2R,4R,5R,6R)-2-[(4-{(4S*,3R*)-1-phenyl-3-[3-(4-fluorophenyl)propyl]-2-oxoazetidine-4-yl}phenyl)methyl]4,5-diacetyloxy-6-(acetoxymethyl)perhydro-2H-pyran-3-ylacetate], for which the melting point is 60 to 61 °C.

`O=C1[C@H](CCCc2ccccc2)[C@@H](c2ccc(CC3O[C@H](CO)[C@@H](O)[C@H](O)[C@H]3O)cc2)N1c1ccc(F)cc1` (relative stereo) [Compound 11, (4S*,3R*)-4-(4-{[(5S,2R,3R,4R,6R)-3,4,5-Trihydroxy-6-(hydroxymethyl)perhydro-2H-pyran-2-yl]methyl}phenyl)-1-(4-fluorophenyl)-3-[3-(phenyl)propyl]azetidine-2-one]: the melting point fell in the range of 74 to 75 °C.

For `O=C1[C@H](CCOc2ccc(F)cc2)[C@@H](c2ccc(CC3O[C@H](CO)[C@@H](O)[C@H](O)[C@H]3O)cc2)N1c1ccc(F)cc1` (relative stereo) [Compound 12, (4S*,3R*)-4-(4-{[(5S,2R,3R,4R,6R)-3,4,5-Trihydroxy-6-(hydroxymethyl)perhydro-2H-pyran-2-yl]methyl}phenyl)-1-(4-fluorophenyl)-3-[2-(4-fluorophenoxy)ethyl]azetidine-2-one], the melting point was in the range of 65 to 67 °C.

As for `O=C1[C@H](CCCc2ccc(F)cc2)[C@@H](c2ccc(OCC3O[C@H](CO)[C@@H](O)[C@H](O)[C@H]3O)cc2)N1c1ccc(F)cc1` (relative stereo) [Compound 14, (4S*,3R*)-4-(4-{[(4S,5S,2R,3R,6R)-3,4,5-Trihydroxy-6-(hydroxymethyl)perhydro-2H-pyran-2-yl]methoxy}phenyl)-1-(4-fluorophenyl)-3-[3-(4-fluorophenyl)propyl]azetidine-2-one], the melting point lay in the range of 61 to 62 °C.

Consider `O=C1[C@H](CCCc2ccc(F)cc2)[C@@H](c2ccc(OCC3O[C@H](CO)[C@@H](O)[C@H](O)[C@H]3O)cc2)N1Cc1ccccc1` (relative stereo) [Compound 16, (4S*,3R*)-4-(4-{[(4S,5S,2R,3R,6R)-3,4,5-Trihydroxy-6-(hydroxymethyl)perhydro-2H-pyran-2-yl]methoxy}phenyl)-1-phenylmethyl-3-[3-(4-fluorophenyl)propyl]azetidine-2-one], for which the melting point is 73 to 75 °C.

Regarding `CCOC(=O)C(C)(C)Oc1ccc(N2C(=O)[C@H](CCCc3ccc(F)cc3)[C@H]2c2ccc(C[C@@H]3O[C@H](CO)[C@@H](O)[C@H](O)[C@H]3O)cc2)cc1` (relative stereo) [Compound 18, 2-{4-[(4S*,3R*)-4-{[(5S,2R,3R,4R,6R)-3,4,5-Trihydroxy-6-(hydroxymethyl)perhydro-2H-pyran-2-yl]methyl}phenyl-3-[3-(4-fluorophenyl)propyl]-2-oxoazetidinyl]phenoxy}-2-methylpropionic acid ethyl ester], the melting point fell in the range of 73 to 74 °C.

Compound `CC(C)(Oc1ccc(N2C(=O)[C@H](CCCc3ccc(F)cc3)[C@H]2c2ccc(C[C@@H]3O[C@H](CO)[C@@H](O)[C@H](O)[C@H]3O)cc2)cc1)C(=O)O` (relative stereo) [Compound 19, 2-{4-[(4S*,3R*)-4-{[(5S,2R,3R,4R,6R)-3,4,5-Trihydroxy-6-(hydroxymethyl)perhydro-2H-pyran-2-yl]methyl}phenyl-3-[3-(4-fluorophenyl)propyl]-2-oxoazetidinyl]phenoxy}-2-methylpropionic acid] returned a melting point of 170 to 172 °C.

As to `CCOC(=O)C(C)(C)Oc1ccc(N2C(=O)[C@H](CCCc3ccc(C)cc3)[C@H]2c2ccc(C[C@@H]3O[C@H](CO)[C@@H](O)[C@H](O)[C@H]3O)cc2)cc1` (relative stereo) [Compound 20, 2-{4-[(4S*,3R*)-4-{[(5S,2R,3R,4R,6R)-3,4,5-Trihydroxy-6-(hydroxymethyl)perhydro-2H-pyran-2-yl]methyl}phenyl-3-[3-(4-methylphenyl)propyl]-2-oxoazetidinyl]phenoxy}-2-methylpropionic acid ethyl ester], the melting point lay within 76 to 78 °C.

`Cc1ccc(CCC[C@H]2C(=O)N(c3ccc(OC(C)(C)C(=O)O)cc3)[C@@H]2c2ccc(C[C@@H]3O[C@H](CO)[C@@H](O)[C@H](O)[C@H]3O)cc2)cc1` (relative stereo) [Compound 21, 2-{4-[(4S*,3R*)-4-{[(5S,2R,3R,4R,6R)-3,4,5-Trihydroxy-6-(hydroxymethyl)perhydro-2H-pyran-2-yl]methyl}phenyl-3-[3-(4-methylphenyl)propyl]-2-oxoazetidinyl]phenoxy}-2-methylpropionic acid] showed a melting point of 161 to 162 °C.

Regarding `O=C1[C@H](CCCc2ccc(F)cc2)[C@H](c2ccc(CC3O[C@H](CO)[C@@H](O)[C@H](O)[C@H]3O)cc2)N1c1ccc(F)cc1` (relative stereo) [Compound 40, (4R*,3R*)-4-(4-{[(5S,2R,3R,4R,6R)-3,4,5-Trihydroxy-6-(hydroxymethyl)perhydro-2H-pyran-2-yl]methyl}phenyl)-3-[3-(4-fluorophenyl)propyl]-1-(4-fluorophenyl)azetidine-2-one], the melting point lay within 78 to 80 °C.

Turning to `O=C1[C@H](CCCc2ccc(F)cc2)[C@@H](c2ccc(CC3O[C@H](CO)[C@@H](O)[C@H](O)[C@H]3O)cc2)N1c1ccc(F)cc1` (stereo in doubt) [Compound 25, (4S,3R)-4-(4-{[(5S,2R,3R,4R,6R)-3,4,5-Trihydroxy-6-(hydroxymethyl)perhydro-2H-pyran-2-yl)methyl}phenyl)-1-(4-fluorophenyl)-3-[3-(4-fluorophenyl)propyl]azetidine-2-one], the melting point fell in the range of 67 to 69 °C.

With `O=C1[C@H](CC[C@H](O)c2ccc(F)cc2)[C@@H](c2ccc(C[C@@H]3O[C@H](CO)[C@@H](O)[C@H](O)[C@H]3O)cc2)N1c1ccc(F)cc1` [Compound 22, (4S,3R)-3-[(3S)-3-(4-Fluorophenyl)-3-hydroxypropyl]-4-(4-{[(2S,5S,3R,4R,6R)-3,4,5-trihydroxy-6-(hydroxymethyl)perhydro-2H-pyran-2-yl]methyl}phenyl)-1-(4-fluorophenyl)azetidine-2-one], the melting point is 115 to 117 °C.

In the case of `O=C(CC[C@H]1C(=O)N(c2ccc(F)cc2)[C@@H]1c1ccc(C[C@@H]2O[C@H](CO)[C@@H](O)[C@H](O)[C@H]2O)cc1)c1ccc(F)cc1` [Compound 26, (4S,3R)-4-(4-{[(2S,5S,3R,4R,6R)-3,4,5-Trihydroxy-6-(hydroxymethyl)perhydro-2H-pyran-2-yl]methyl}phenyl)-1-(4-fluorophenyl)-3-[3-(4-fluorophenyl)-3-oxopropyl]azetidine-2-one], the melting point is 78 to 80 °C.
